The subject of data set [1] is diabetic patients. Particulars: cited from earlier work.
Data set [2] concerns KPC1242, Panc-1, AsPC-1, HCT-116, MDA-MB-231, OVCAR-4, OVCAR-8 cancer cell lines. Nature of the data set: Cell growth (IncuCyte confluence) in cancer cell lines. Format: cell-based, murine, human. Particulars: increasing concentrations 0.1 μM-10 μM, each of the cancer cells. From the text: (§1) Murine pancreatic cancer cells KPC1242 (David Tuveson, Cold Spring Harbor), human pancreatic cancer cells, Panc-1 (ATCC: CRL-1469), human breast cancer cells MDA-MB-231 (ATCC: CRM-HTB-26), and human pancreatic stellate cells HPSC (Rosa F. Hwang, MD Anderson cancer) were all cultured in DMEM (Gibco ThermoFisher Scientific, Waltham, MA, Cat #11965084) containing 10% v/v fetal bovine serum (Omega Scientific, Inc., Tarzana, CA, Cat #FB-12). Human pancreatic cancer cells AsPC-1 (ATCC: CRL-1682), human ovarian cancer cells OVCAR-8 (NIH: CVCL-1629), and human ovarian cancer cells OVCAR-4 (NIH: CVCL-1627) were all cultured in DMEM (Gibco, Cat #22400089) containing 10% v/v fetal bovine serum (Omega Scientific). Human colon cancer cells HCT-116 (ATCC: CCL-247) were cultured in McCoy's 5A Modified Medium (Gibco, Cat #16600082) containing 10% v/v fetal bovine serum (Omega Scientific). Human pancreatic duct epithelial cells HPNE (ATCC: CRL-4023) were cultured in DMEM and 200 mM L-Glutamine and 7.5% w/v NaCO3 further supplemented with 15% v/v fetal bovine serum, M3-Base A (Incell, San Antonio, TX), 1M D-Glucose (Gibco Cat #J60067.EQE), 100 μg/mL human EGF (Gibco Cat #PHG0313) and 10 mg/mL puromycin (ThermoFisher, Cat #A1113802).

Data set [3] deals with HPNE and HPSC non-transformed cells. The experiment in a line: Cell growth (confluence) of normal non-transformed cells. The format is cell-based, human. The protocol:
To test the off-target effects of the refined MMe analogs on normal non-transformed cells, the growth of HPNE cells (FIGS. 11A, 11D, and 11G), used as a surrogate for normal pancreatic ductal epithelium, or normal stromal HPSC cells (FIGS. 11B, 11E, and 11H) were measured in increasing concentrations of MMe, pCF3-MMe, or mCF3-MMe and compared to the vehicle control.
as §1

In data set [4] the test system is Panc-1 human pancreatic cancer cells. Nature of the data set: Cell growth (IncuCyte confluence) in Panc-1 cells.
Description: Values are mean±SD, n=4, each experiment completed in technical quadruplicate.
To investigate tumor cell selectivity, human pancreatic nestin-expressing cells (HPNE) were used as a surrogate for normal epithelial cells, and human pancreatic stellate cells (HPSC) were studied as a non-transformed stromal cell type. Cells were exposed to escalating concentrations of MMe, pCF3-MMe, mCF3-MMe, and pMeO-MMe (FIGS. 2A-2D) and percent confluency measured as a surrogate for daily proliferation.
Cells were plated to standard 96-well tissue culture plates at 4,000 cells/well. Mitochondria-targeted compounds were diluted in full serum medium and added to wells. Cell confluence was measured using an IncuCyte S3 every 2 hours at 10× magnification. […] Image analyses were conducted using the IncuCyte S3 imaging software system.

The structures appear in SMILES notation.

Take `CN(C)C(=N)N=C(N)N` [Metformin]: the tolerated daily doses in data set [1] is listed as 2-3 grams.
For the molecule `N=C(N)NC(=N)NCCCCCCCCCC[P+](c1cccc(C(F)(F)F)c1)(c1cccc(C(F)(F)F)c1)c1cccc(C(F)(F)F)c1.[Br-]` [mCF3-MMe, (10-(3-carbamimidoylguanidino)decyl)tris(3-(trifluoromethyl)phenyl)phosphonium bromide], in data set [2], the cell confluency entry was “decreased in a concentration-dependent manner”. Moreover, in data set [3], the “reduction in toxicity to normal cells compared to MMe” value is recorded as ~10 fold. Also, the “sensitivity of normal non-transformed cells compared to cancer cells” value in data set [3] (HPNE, HPSC versus cancer cells) is listed as “more than a log less sensitive”.
For `COc1ccc([P+](CCCCCCCCCCNC(=N)NC(=N)N)(c2ccc(OC)cc2)c2ccc(OC)cc2)cc1` [pMeO-MMe], the confluence result in data set [4] (human pancreatic cancer cells) is recorded as “concentration-dependent decrease in confluence”. For the same molecule, the “efficacy in pancreas cancer cells” value in data set [4] (in contrast to the fluorinated compound) is “significantly lower efficacy”.

These data come from US20250042925A1, “Improved Compositions and Methods for Targeting Mitochondria in Cancer Cells” (The Medical College of Wisconsin, Inc., priority 2021, published 2025).
